Laboratory results published in patent US11976091B2, “Terpene glycoside derivatives and uses thereof” (Firmenich SA, priority 2018, dated 2024).

Key:
[1] = tested on: panel of 8 trained people; assay: Sensory evaluation of taste properties (descriptive), samples in 4% w/w sucrose solution; type: in vivo; settings: for Description (taste properties: sweet, licorice and sweet lingering): panel of 8 trained people
Experimental: A composition comprising Compound I was generated according to the methods described in Example 1. The composition was dissolved in a 4% w/w sucrose solution, at a final concentration of 30 ppm. A panel of 8 trained people evaluated the test solution, as well as samples comprising rebaudioside A, rebaudioside D, or rebaudioside M for taste properties (sweet, licorice and sweet lingering).

[2] = tested on: panel of 8 trained people; assay: Sensory evaluation of taste properties on a scale of −5 to 5 versus 4% w/w sucrose reference solution; type: in vivo; settings: for Licorice / Sweet / Sweet Lingering: 30 ppm in 4% w/w sucrose solution, scale −5 to 5 (−5 no effect, 5 extremely strong effect, 0 = 4% w/w sucrose reference); for tastes enhanced in the 4% sucrose base: 30 ppm in 4% sucrose base
Experimental: In another experiment, a composition comprising compound of formula I was generated according to the methods described in Example 1. The composition was dissolved in a 4% w/w sucrose solution. A panel of 8 trained people evaluated the test solutions for taste properties (sweet, licorice and sweet lingering) on a scale of −5 to 5 (−5 denoted no effect and 5 denoted extremely strong effect, 0 being the intensity of a reference water solution containing either (i) 4% w/w sucrose solution. The results are shown in the table below.

[3] = 30 ppm in 4% w/w sucrose solution

Structure (SMILES): C=C1C[C@@]23CC[C@H]4[C@@](C)(CCC[C@@]4(C)C(=O)O[C@@H]4OC(CO[C@@H]5OC(CO)[C@@H](O)C(O)C5O)[C@@H](O)C(O)C4O)[C@@H]2CC[C@]1(O[C@@H]1OC(CO)[C@@H](O)C(O[C@@H]2OC(CO)[C@@H](O)C(O)C2O)C1O[C@@H]1OC(CO)[C@@H](O)C(O)C1O)C3 (some centres unmarked) [Compound I]
- Description (taste properties: sweet, licorice and sweet lingering) [1, 3]: Sweet, licorice, lingering
- Licorice [2]: 1.4
- Sweet [2]: 1.1
- Sweet Lingering [2]: 0.4
- effect for licorice and sweet lingering tastes ([2]; dosage of 30 ppm in 4% sucrose base): without any significant effect
- effect on sweet intensity in the 4% sucrose base ([2]; dosage of 30 ppm, 95% of confidence level): significantly enhanced

Structure (SMILES): C=C1C[C@@]23CC[C@H]4[C@@](C)(CCC[C@@]4(C)C(=O)O[C@@H]4O[C@H](CO)[C@@H](O)[C@H](O)[C@H]4O)[C@@H]2CC[C@]1(O[C@@H]1O[C@H](CO)[C@@H](O)[C@H](O[C@@H]2O[C@H](CO)[C@@H](O)[C@H](O)[C@H]2O)[C@H]1O[C@@H]1O[C@H](CO)[C@@H](O)[C@H](O)[C@H]1O)C3 [Reb A, rebaudioside A]
- Description (taste properties: sweet, licorice and sweet lingering) [1, 3]: Sweet, licorice, lingering, slightly
- tastes enhanced in the 4% sucrose base [2]: enhancing sweet and sweet lingering tastes
- Licorice [2]: 1.3
- Sweet [2]: 1.5
- Sweet Lingering [2]: 0.5

Structure (SMILES): C=C1C[C@@]23CC[C@H]4[C@@](C)(CCC[C@@]4(C)C(=O)O[C@@H]4O[C@H](CO)[C@@H](O)[C@H](O)[C@H]4O[C@@H]4O[C@H](CO)[C@@H](O)[C@H](O)[C@H]4O)[C@@H]2CC[C@]1(O[C@@H]1O[C@H](CO)[C@@H](O)[C@H](O[C@@H]2O[C@H](CO)[C@@H](O)[C@H](O)[C@H]2O)[C@H]1O[C@@H]1O[C@H](CO)[C@@H](O)[C@H](O)[C@H]1O)C3 [Reb D, rebaudioside D]
- Description (taste properties: sweet, licorice and sweet lingering) [1, 3]: Sweet, lingering, licorice
- Licorice [2]: 1.3
- Sweet [2]: 1.5
- Sweet Lingering [2]: 0.4

Structure (SMILES): C=C1C[C@@]23CC[C@H]4[C@@](C)(CCC[C@@]4(C)C(=O)O[C@@H]4O[C@H](CO)[C@@H](O)[C@H](O[C@@H]5O[C@H](CO)[C@@H](O)[C@H](O)[C@H]5O)[C@H]4O[C@@H]4O[C@H](CO)[C@@H](O)[C@H](O)[C@H]4O)[C@@H]2CC[C@]1(O[C@@H]1O[C@H](CO)[C@@H](O)[C@H](O[C@@H]2O[C@H](CO)[C@@H](O)[C@H](O)[C@H]2O)[C@H]1O[C@@H]1O[C@H](CO)[C@@H](O)[C@H](O)[C@H]1O)C3 [Reb M, rebaudioside M]
- licorice taste compared to the other samples [1, 3]: stronger licorice taste
- Description (taste properties: sweet, licorice and sweet lingering) [1, 3]: Licorice, sweet, lingering
- tastes enhanced in the 4% sucrose base [2]: enhancing all sweet, licorice and sweet lingering tastes
- Licorice [2]: 1.3
- Sweet [2]: 1.6
- Sweet Lingering [2]: 0.8

Structure (SMILES): OC[C@H]1O[C@@](CO)(O[C@H]2O[C@H](CO)[C@@H](O)[C@H](O)[C@H]2O)[C@@H](O)[C@@H]1O [Sucrose, sucrose]
- Description (taste properties: sweet, licorice and sweet lingering) [1, 3]: Sweet, slightly lingering
- lingering taste compared to the others ([1]; 30 ppm test samples in 4% w/w sucrose solution): weaker lingering taste than others
